Columns and labels:
[1] = Determination of partition coefficients DCM/water; type: physicochemical; conditions: 24 h, room temperature
PTP1B = conditions: cited from earlier work
Recombinant human PTP1B = target: T1, Recombinant human PTP1B (Homo sapiens, UniProt P18031); type: biochemical
T1 sequence (P18031 1-435): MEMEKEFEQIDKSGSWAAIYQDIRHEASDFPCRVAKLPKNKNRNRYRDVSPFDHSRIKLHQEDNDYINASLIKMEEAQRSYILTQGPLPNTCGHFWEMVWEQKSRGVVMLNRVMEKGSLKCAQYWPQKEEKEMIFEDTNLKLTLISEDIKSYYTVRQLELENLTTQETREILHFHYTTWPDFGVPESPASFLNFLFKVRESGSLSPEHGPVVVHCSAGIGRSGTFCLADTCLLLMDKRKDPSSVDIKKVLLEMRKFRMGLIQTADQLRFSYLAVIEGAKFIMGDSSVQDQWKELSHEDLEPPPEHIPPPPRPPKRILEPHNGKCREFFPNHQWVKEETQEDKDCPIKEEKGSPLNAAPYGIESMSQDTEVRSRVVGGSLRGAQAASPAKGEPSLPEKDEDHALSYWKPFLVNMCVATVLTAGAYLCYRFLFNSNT

[2] = pH 2
Irradiation experiment = type: physicochemical; conditions: 365 nm, 2 h, room temperature, isopropanol/water (70 : 30)

| Compound | Percent compound in DCM (organic phase) [1] [%] | affinity, inhibition of PTP1B phosphatase activity (PTP1B) | Ki (Recombinant human PTP1B) [µM] | increase of affinity to PTP1B relative to phosphonate amino acid 1 (Recombinant human PTP1B) [fold] | stability of the pentafluorophosphate anion [2] | photostability on irradiation (Irradiation experiment) |
| --- | --- | --- | --- | --- | --- | --- |
| FC(F)(c1ccccc1)[P-](F)(F)(F)(F)F [Compound 2] | 37 | low, millimolar affinity | – | – | – | – |
| NC(Cc1ccc(C(F)(F)[P-](F)(F)(F)(F)F)cc1)C(=O)O (stereo not drawn) [Compound 3, 4‐pentafluoro‐phosphato‐difluoromethyl‐phenylalanine] | – | – | 61 ± 8 | 25 | stable | – |
| CNC(=O)C(Cc1ccc(C(F)(F)[P-](F)(F)(F)(F)F)cc1)NC(C)=O (stereo not drawn) [Compound 10] | 16 | – | – | – | – | – |
| NC(Cc1ccc(C(=O)[P-](F)(F)(F)(F)F)cc1)C(=O)O (stereo not drawn) [Compound 12, 4‐(pentafluorophosphato‐carbonyl)‐phenylalanine] | – | – | 52 ± 7 | 30 | – | photoconversion of the PF5 residue |

From publication PMC9323422 (Angewandte Chemie (International Ed. in English), 2022)
